Laboratory results taken from ChEMBL document CHEMBL4715821, “Discovery of 4-ethoxy-7H-pyrrolo[2,3-d]pyrimidin-2-amines as potent, selective and orally bioavailable LRRK2 inhibitors” (Bioorg Med Chem Lett, 2018).

Experiments:
[1] = molecular target: Mitogen-activated protein kinase kinase kinase 5 (Homo sapiens) (UniProt Q99683); assay: Inhibition of wild-type human partial length ASK1 (E648 to S964 residues) expressed in bacterial expression system assessed as residual activity at 1 uM by Kinomescan method relative to control
[2] = molecular target: Serine/threonine-protein kinase BRSK1 (Homo sapiens) (UniProt Q8TDC3); assay: Inhibition of wild-type human partial length BRSK1 (M1 to E754 residues) expressed in bacterial expression system assessed as residual activity at 1 uM by Kinomescan method relative to control
[3] = molecular target: Serine/threonine-protein kinase Chk2 (Homo sapiens) (UniProt O96017); assay: Inhibition of CHK2 (unknown origin) assessed as residual activity at 1 uM by Kinomescan method relative to control
[4] = molecular target: Casein kinase II subunit alpha' (Homo sapiens) (UniProt P19784); assay: Inhibition of CK2a2 (unknown origin) assessed as residual activity at 1 uM by Kinomescan method relative to control
[5] = molecular target: Epidermal growth factor receptor (Homo sapiens) (UniProt P00533); assay: Inhibition of wild-type human partial length EGFR (R669 to V1011 residues) expressed in bacterial expression system assessed as residual activity at 1 uM by Kinomescan method relative to control
[6] = molecular target: Ephrin type-B receptor 1 (Homo sapiens) (UniProt P54762); assay: Inhibition of wild-type human partial length EPHB1 (P589 to T911 residues) expressed in bacterial expression system assessed as residual activity at 1 uM by Kinomescan method relative to control
[7] = molecular target: Receptor tyrosine-protein kinase erbB-4 (Homo sapiens) (UniProt Q15303); assay: Inhibition of wild-type human partial length ERBB4 (L690 to K994 residues) expressed in bacterial expression system assessed as residual activity at 1 uM by Kinomescan method relative to control
[8] = molecular target: Mitogen-activated protein kinase 1 (Homo sapiens) (UniProt P28482); assay: Inhibition of wild-type human full length ERK2 (M1 to S360 residues) expressed in bacterial expression system assessed as residual activity at 1 uM by Kinomescan method relative to control
[9] = molecular target: Fibroblast growth factor receptor 4 (Homo sapiens) (UniProt P22455); assay: Inhibition of wild-type human partial length FGFR4 (G402 to E713 residues) expressed in bacterial expression system assessed as residual activity at 1 uM by Kinomescan method relative to control
[10] = molecular target: Ribosomal protein S6 kinase alpha-4 (Homo sapiens) (UniProt O75676); assay: Inhibition of wild-type human partial length N-terminal RPS6KA4 kinase domain 1 expressed in bacterial expression system assessed as residual activity at 1 uM by Kinomescan method relative to control
[11] = molecular target: Serine/threonine-protein kinase Nek2 (Homo sapiens) (UniProt P51955); assay: Inhibition of wild-type human partial length NEK2 (M1 to K309 residues) expressed in bacterial expression system assessed as residual activity at 1 uM by Kinomescan method relative to control
[12] = molecular target: Serine/threonine-protein kinase PAK 3 (Homo sapiens) (UniProt O75914); assay: Inhibition of wild-type human full length PAK3 (M1 to R544 residues) expressed in bacterial expression system assessed as residual activity at 1 uM by Kinomescan method relative to control
[13] = molecular target: Platelet-derived growth factor receptor beta (Homo sapiens) (UniProt P09619); assay: Inhibition of wild-type human partial length PDGFRB (V582 to Y1009 residues) expressed in bacterial expression system assessed as residual activity at 1 uM by Kinomescan method relative to control
[14] = molecular target: Serine/threonine-protein kinase pim-1 (Homo sapiens) (UniProt P11309); assay: Inhibition of wild-type human partial length PIM1 (A15 to K313 residues) expressed in bacterial expression system assessed as residual activity at 1 uM by Kinomescan method relative to control
[15] = molecular target: Serine/threonine-protein kinase pim-3 (Homo sapiens) (UniProt Q86V86); assay: Inhibition of wild-type human partial length PIM3 (G16 to A317 residues) expressed in bacterial expression system assessed as residual activity at 1 uM by Kinomescan method relative to control
[16] = molecular target: Protein kinase C alpha type (Homo sapiens) (UniProt P17252); assay: Inhibition of PKCalpha (unknown origin) assessed as residual activity at 1 uM by Kinomescan method relative to control
[17] = molecular target: Serine/threonine-protein kinase N1 (Homo sapiens) (UniProt Q16512); assay: Inhibition of wild-type human partial length PKN1 (E598 to C948 residues) expressed in bacterial expression system assessed as residual activity at 1 uM by Kinomescan method relative to control
[18] = molecular target: cAMP-dependent protein kinase catalytic subunit PRKX (Homo sapiens) (UniProt P51817); assay: Inhibition of wild-type human partial length PRKX (M1 to F358 residues) expressed in bacterial expression system assessed as residual activity at 1 uM by Kinomescan method relative to control
[19] = molecular target: Macrophage-stimulating protein receptor (Homo sapiens) (UniProt Q04912); assay: Inhibition of wild-type human partial length MST1R (I1057 to L1363 residues) expressed in bacterial expression system assessed as residual activity at 1 uM by Kinomescan method relative to control
[20] = molecular target: Serine/threonine-protein kinase Sgk1 (Homo sapiens) (UniProt O00141); assay: Inhibition of wild-type human partial length SGK1 (I60 to L431 residues) expressed in mammalian expression system assessed as residual activity at 1 uM by Kinomescan method relative to control
[21] = molecular target: SRSF protein kinase 2 (Homo sapiens) (UniProt P78362); assay: Inhibition of wild-type human full length SRPK2 (M1 to S686 residues) expressed in bacterial expression system assessed as residual activity at 1 uM by Kinomescan method relative to control
[22] = molecular target: Tyrosine-protein kinase Tec (Homo sapiens) (UniProt P42680); assay: Inhibition of wild-type human partial length TEC (L341 to D620 residues) expressed in bacterial expression system assessed as residual activity at 1 uM by Kinomescan method relative to control
[23] = molecular target: Cyclin-Y/Cyclin-dependent kinase 16 (Homo sapiens) (UniProt Q00536+Q8ND76); assay: Inhibition of CDK16/Cyclin Y (unknown origin) assessed as residual activity at 1 uM by Kinomescan method relative to control; format: protein-complex assay
[24] = molecular target: CDK2/Cyclin A1 (Homo sapiens) (UniProt P24941+P78396); assay: Inhibition of CDK2/Cyclin A1 (unknown origin) assessed as residual activity at 1 uM by Kinomescan method relative to control; format: protein-complex assay
[25] = molecular target: Non-receptor tyrosine-protein kinase TNK1 (Homo sapiens) (UniProt Q13470); assay: Inhibition of wild-type human full length TNK1 (M1 to P661 residues) expressed in bacterial expression system assessed as residual activity at 1 uM by Kinomescan method relative to control
[26] = molecular target: Tau-tubulin kinase 2 (Homo sapiens) (UniProt Q6IQ55); assay: Inhibition of TTBK2 (unknown origin) assessed as residual activity at 1 uM by Kinomescan method relative to control

Structure (SMILES): CCOc1nc(Nc2ccc(C(=O)N3CCOCC3)cc2OC)nc2[nH]ccc12
- Activity [1]: 92.2%
- Activity [2]: 134%
- Activity [3]: 16.8%
- Activity [4]: 86.1%
- Activity [5]: 99.6%
- Activity [6]: 100%
- Activity [7]: 101%
- Activity [8]: 93.5%
- Activity [9]: 83.7%
- Activity [10]: 109%
- Activity [11]: 96.1%
- Activity [12]: 96.4%
- Activity [13]: 90.9%
- Activity [14]: 99.7%
- Activity [15]: 99.9%
- Activity [16]: 95.5%
- Activity [17]: 94.8%
- Activity [18]: 99.8%
- Activity [19]: 96.9%
- Activity [20]: 96.6%
- Activity [21]: 82%
- Activity [22]: 99.3%
- Activity [23]: 105%
- Activity [24]: 74%
- Activity [25]: 46.5%
- Activity [26]: 104%
